“Also recorded” adds a separate entry of the source.
Key:
[1] = test system: imine reductase purified from GF3587; test: Substrate specificity of imine reductase purified from GF3587 (decrease of NADPH absorbance at 340 nm); format: biochemical, Streptomyces sp. GF3587; details: for Relative Activity: 2-MPN = 100; for level of activity of reducing the compound, activity of reducing 2-methyl-1-pyrroline taken as 100: relative to 2-MPN = 100
Description: To assess the substrate specificity of the imine reductase purified from GF3587, the activities of the enzyme towards the compounds listed in Table 4 were compared.
One ml of reaction mixtures having the composition described below were incubated at […]. The reaction mixtures were assayed to determine the decrease in absorbance (340 nm) of NADPH due to the generation of (R)-2-methylpyrrolidine. An imine reductase solution (2.04 U/ml) was added to reaction solutions containing each substrate compound shown in Table 4 to initiate the reaction. The absorbance of each reaction solution was determined at 340 nm after two minutes of incubation.
The relative activity shown in the table is defined as relative activity when the enzymatic activity on […] (2-MPN) is taken as 100.

[2] = test system: imine reductase responsible for the reduction of 2-methyl-1-pyrroline (crude enzyme solution); test: Coenzyme dependency of 2-methyl-1-pyrroline reduction by crude enzyme solution; format: biochemical, Streptomyces sp. GF3587; details: 10 mM coenzyme, 10 mM 2-methyl-1-pyrroline, pH 7.0, 30° C.
Description: (§1) The cells of Streptomyces sp. GF3587 were cultured according to Example 1, and then crushed with glass beads. A crude enzyme solution was prepared by removing intact microbial cells and cell debris by centrifugation. 100 μl of the crude enzyme solution was added to 100 mM phosphate buffer (pH 7.0) containing 10 mM 2-methyl-1-pyrroline and 10 mM NADH or NADPH. During incubation of the mixture at 30° C., absorbance was measured at 340 nm to monitor the decrease of NAD(P)H. The enzymatic activity was determined by this assay.

[3] = Optimal temperature of imine reductase; format: biochemical, Streptomyces sp. GF3587; details: pH 7.0, 10 to 70° C. tested
Description: The imine reductase purified from GF3587 was tested for its optimal temperature. 1 ml of reaction solution having the composition described below were incubated at 10 to 70° C. to measure the decrease of absorbance (340 nm) of NADPH due to the generation of (R)-2-methylpyrrolidine. After the reaction solutions were pre-incubated at each temperature for five minutes, an imine reductase solution (12.3 U/ml) was added thereto to initiate the reaction. After two minutes, the absorbance of the reaction solutions was measured at 340 nm. The amount of imine reductase that catalyzes the decrease (oxidation) of 1 μmol of NADPH per minute when incubated at 30° C. in the reaction solution having the composition described below is defined as 1 U. The result is shown in FIG. 7.

[4] = Optimal pH of imine reductase; format: biochemical, Streptomyces sp. GF3587; details: 30° C.
Description: Furthermore, the imine reductase purified from GF3587 was tested for its optimal pH. The reaction was started by adding an imine reductase (6.82 U/ml) solution to reaction mixtures having the same composition as shown in (1), except that various types of buffer agents were added. The mixtures were incubated at 30° C. for two minutes. The buffers used in this experiment and their pH are listed below.
100 mM citrate buffer: pH 3 to 6
100 mM sodium acetate buffer: pH 4 to 5.5
100 mM potassium phosphate buffer: pH 6 to 8
100 mM Tris-HCl buffer: pH 7.5 to 9
100 mM glycine-sodium hydroxide buffer: pH 9 to 11
The reaction solutions were assayed to determine the decreases in absorbance (340 nm) of NADPH due to the generation of (R)-2-methylpyrrolidine. […] Furthermore, 80% or more of the maximal activity was retained at pH 6.0 to 7.5.

[5] = Imine-reducing activity of microbial cell extracts of recombinant E. coli JM109; format: biochemical; details: protein expressed in E. coli
Description: as §1
The E. coli JM109 strain that had been transformed with an imine reductase expression plasmid pSUSRIR1 was cultured in an ampicillin-containing liquid LB medium at 30° C. overnight. After adding 0.1 mM IPTG, the cells were further cultured for four hours.
The microbial cells were harvested by centrifugation, and then suspended in 100 mM potassium phosphate buffer (pH 7.0) containing 1 mM DTT. The microbial cells were crushed in Sealed-Type Ultrasonic Cell Disruptor UCD-200™ (Cosmo Bio). After centrifugation, the supernatant was collected as microbial cell extract. […] After adding 0.1 mM IPTG the cells were further cultured for four hours. Using the same method, the microbial cells were also crushed to prepare microbial cell extract.
Each microbial cell extract was assayed for its imine-reducing activity towards 2-methyl-1-pyrroline. […]

For `C1=NCCCN1` [1,4,5,6-Tetrahydropyrimidine], the “Relative Activity” value ([1]; substrate 10 mM) was 0.

With `CC1=NCCC1` [2-Methyl-1-pyrroline (2-MPN), 2-Methyl-1-pyrroline] the “level of activity of reducing the compound, activity of reducing 2-methyl-1-pyrroline taken as 100” value [1] was 100%, the “enzymatic activity corresponding to relative activity 100” value ([1]; substrate 10 mM) was 2.04 U/mL and the “Relative Activity” value ([1]; substrate 10 mM) was 100.

In the case of `Cc1ccco1` [2-Methylfuran], the “Relative Activity” value ([1]; substrate 10 mM) is reported as 0.

In the case of `Cc1ncc[nH]1` [2-Methylimidazole], the “Relative Activity” value ([1]; substrate 10 mM) is reported as 0.

In the case of `Cc1cnccn1` [2-Methylpyrazine], the “Relative Activity” value ([1]; substrate 10 mM) is reported as 0.

In the case of `Cc1ncccn1` [2-Methylpyrimidine], the “Relative Activity” value ([1]; substrate 10 mM) is reported as 0.

In the case of `Cc1nccs1` [2-Methylthiazole], the “Relative Activity” value ([1]; substrate 10 mM) is reported as 0.

With `Cc1cccs1` [2-Methylthiophene] the “Relative Activity” value ([1]; substrate 5 mM) was 0.

In the case of `CC(=NO)c1ccccc1` [Acetophenone oxime], the “Relative Activity” value ([1]; substrate 1 mM) is reported as 0.

With `Nc1nc2c(c(=O)[nH]1)N=C(CNc1ccc(C(=O)N[C@@H](CCC(=O)O)C(=O)O)cc1)CN2` [Dihydrofolic acid] the “level of activity of reducing the compound, activity of reducing 2-methyl-1-pyrroline taken as 100” value [1] was 7.6% and the “Relative Activity” value ([1]; substrate 0.05 mM) was 7.6.

In the case of `C/C(=N\c1ccccc1)c1ccccc1` [N-((E/Z)-N-(1-phenylethylidene)aniline], the “level of activity of reducing the compound, activity of reducing 2-methyl-1-pyrroline taken as 100” value [1] is reported as 29% and the “Relative Activity” value ([1]; substrate 25 mM) is reported as 29.

In the case of `C(=NCc1ccccc1)c1ccccc1` [N-Benzylidenebenzylamine], the “Relative Activity” value ([1]; substrate 10 mM) is reported as 30.

With `NC(=O)C1=CN([C@@H]2O[C@H](COP(=O)(O)OP(=O)(O)OC[C@H]3O[C@@H](n4cnc5c(N)ncnc54)[C@H](O)[C@@H]3O)[C@@H](O)[C@H]2O)C=CC1` [NADH] the “activity with the coenzyme, activity with NADPH taken as 100%” value [2] was 7%.

In the case of `NC(=O)C1=CN([C@@H]2O[C@H](COP(=O)(O)OP(=O)(O)OC[C@H]3O[C@@H](n4cnc5c(N)ncnc54)[C@H](OP(=O)(O)O)[C@@H]3O)[C@@H](O)[C@H]2O)C=CC1` [NADPH, reduced nicotinamide adenine dinucleotide phosphate], the “activity with the coenzyme, activity with NADPH taken as 100%” value [2] is reported as 100%.

B1: imine reductase purified from GF3587: NADPH-dependent imine reductase purified from Streptomyces sp. GF3587, amino acid sequence SEQ ID NO: 6 (protein)
chain: MGDNRTPVTVIGLGLMGQALAAAFLEAGHTTTVWNRSAGKAEQLVSQGAVQAATPADAVAASELVVVCLSTYDNMHDVIGSLGESLRGKVIVNLTSGSSDQGRETAAWAEKQGVEYLDGAIMITPPGIGTETAVLFYAGTQSVFEKYEPALKLLGGGTTYLGTDHGMPALYDVSLLGLMWGTLNSFLHGVAVVETAGVGAQQFLPWAHMWLEAIKMFTADYAAQIDAGDGKFPANDATLETHLAALKHLVHESEALGIDAELPKYSEALMERVISQGHAKNSYAAVLKAFRKPSE
modifications: Streptomyces sp. GF3587
In the case of B1, the optimal temperature [3] is reported as 50 °C and the “optimal pH” value [4] is reported as 6.5.

B2: Q1EQE0: putative protein of Streptomyces kanamyceticus, SEQ ID NO: 17, imine reductase homologue (protein, listed as Streptomyces kanamyceticus)
chain: MPDNPSTKGRMMRNQQAEHTPVTVIGLGLMGQALAGAFLGAGHPTTVWNRTAAKAEPLVARGAKSAGSVAEAVAASPLVVVCVSDYDAVHALLDPLDGTALQGRTLVNLTSGTSAQARERAAWADGRGADYLDGAILAGPAAIGTADAVVLLSGPRSAFDPHASALGGLGAGTTYLGADHGLASLYDAAGLVMMWSILNGFLQGAALLGTAGVDATTFAPFITQGIGTVADWLPGYARQIDDGAYPADDAAIDTHLATMEHLIHESEFLGVNAELPRFIKALADRAVADGHGGSGYPALIEQFRTHSGK
With B2 the “imine-reducing activity in words” value [5] was “exhibited the imine-reducing activity; also recorded: had imine-reducing activity”.
